Data: patent US9447095B2, “Pyrimidine derivatives as phosphodiesterase 10 inhibitors (PDE-10)” (PALOBIOFARMA S.L., priority 2013, dated 2016)

Biological target: Phosphodiesterase 10A (PDE10A) (Homo sapiens (Human), UniProt Q9Y233)
Test: Phosphodiesterase 10A (PDE10A) activity inhibition test ([3H]cAMP scintillation proximity assay)
Format: biochemical
Settings: dose-response, 1:10 dilutions from 100 μM to 1 nM; [3H]cAMP SPA, 20 minutes at 30° C.; read-out: IC50 PDE10
Protocol: The “analysis of the activity of the enzyme Phosphodiesterase [^3H] cAMP SPA” (Perkin Elmer #7090 TRKQ) kit was used for the study of Phosphodiesterase 10. The kit contains: • Yttrium scintillation proximity assay (SPA) in beads: yttrium silicate in microspheres resuspended pellet in MiliQ water containing 18 mM zinc sulfate. • 10×PDE assay buffer: 500 mM Tris/HCl; 83 mM MgCl2; 17 mM EGTA; pH 7.5. • Tracer [^3H] cAMP: substrate for enzymatic reaction.
The test is based on the preferential binding of linear nucleotides to the SPA beads in the presence of zinc sulfate, with respect to the binding of cyclic nucleotides, which is almost imperceptible.
The binding of the radioactively labeled product to the beads brings the isotope to a proximity enough to allow the radioactive tritium radiation to excite the flashing part in the bead. Any independent radiolabel is not sufficiently close to the flashing part to allow the transfer of energy, so that no signal is generated. In addition, as the cyclic substrate is not effectively linked with the bead, the generated background signal is very low.
The binding of the linear nucleotides with the bead is based on a complex chelation mechanism. Zinc sulfate in the microsphere solution improves the binding between the bead and […].
Phosphodiesterase 10A (PDE10A) Activity Inhibition Test
The test is performed in 96-well Flexiplates (Perkin Elmer #1450-401) with duplicates for each sample. Positive and negative controls are also required in each analyzed plate to evaluate the activity of the enzyme.
The inhibition values for each of the compounds are measured in duplicate at a concentration of 10 μM and the plate is incubated for 20 minutes at 30° C. and then 50 μL of the kit beads are then added “Phosphodiesterase SPA beads” (Perkin-Elmer #RPNQ0150).
The plate is stirred for 1 hour at room temperature. Then beads are allowed to stand for one hour before reading the activity in a beta scintillation counter.
To build a dose-response curve, in order to calculate the potency of inhibition (expressed as IC50) for PDE10A, a series of 1:10 dilutions in test in 1× buffer from 100 μM to 1 nM for each compound were carried out.

Chain of Phosphodiesterase 10A (PDE10A) (Q9Y233 whole entry, species assumed): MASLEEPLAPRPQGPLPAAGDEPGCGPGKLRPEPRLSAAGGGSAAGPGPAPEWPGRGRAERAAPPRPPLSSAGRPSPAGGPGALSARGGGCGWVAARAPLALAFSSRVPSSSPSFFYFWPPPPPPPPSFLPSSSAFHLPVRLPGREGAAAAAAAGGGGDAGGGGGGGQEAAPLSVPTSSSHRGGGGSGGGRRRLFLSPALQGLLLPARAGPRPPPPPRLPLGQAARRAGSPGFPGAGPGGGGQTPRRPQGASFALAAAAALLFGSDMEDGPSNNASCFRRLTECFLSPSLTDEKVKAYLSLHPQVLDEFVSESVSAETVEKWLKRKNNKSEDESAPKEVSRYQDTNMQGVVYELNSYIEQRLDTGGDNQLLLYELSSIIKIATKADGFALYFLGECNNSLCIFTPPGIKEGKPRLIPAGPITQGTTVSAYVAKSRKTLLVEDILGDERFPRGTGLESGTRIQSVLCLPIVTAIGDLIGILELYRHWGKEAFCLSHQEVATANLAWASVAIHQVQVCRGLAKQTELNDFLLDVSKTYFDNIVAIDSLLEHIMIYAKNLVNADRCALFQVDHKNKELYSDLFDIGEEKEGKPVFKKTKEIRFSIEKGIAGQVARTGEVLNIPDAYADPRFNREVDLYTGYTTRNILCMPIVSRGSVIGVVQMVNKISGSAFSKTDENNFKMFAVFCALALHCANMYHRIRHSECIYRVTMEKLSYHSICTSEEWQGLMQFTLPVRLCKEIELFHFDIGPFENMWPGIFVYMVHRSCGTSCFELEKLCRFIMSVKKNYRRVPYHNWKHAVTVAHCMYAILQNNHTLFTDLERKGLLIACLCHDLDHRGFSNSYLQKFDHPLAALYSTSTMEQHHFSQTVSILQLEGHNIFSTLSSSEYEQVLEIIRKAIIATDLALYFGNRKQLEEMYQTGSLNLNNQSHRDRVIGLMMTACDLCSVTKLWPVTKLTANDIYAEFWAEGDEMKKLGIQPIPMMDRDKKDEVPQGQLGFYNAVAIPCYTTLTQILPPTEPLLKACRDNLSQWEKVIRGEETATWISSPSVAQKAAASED

Row | SMILES | IC50 [nM]
1 | Cc1ncsc1CNc1nc(-n2ncc3cnccc32)nc(N)c1Br [Example 39, 5-bromo-N^4-[(4-methylthiazol-5-yl)methyl]-2-(1H-pyrazolo[4,3-c]pyridin-1-yl)pyrimidine-4,6-diamine] | 0.3
2 | Nc1nc(-n2cncn2)nc(NCc2cncs2)c1Br [Example 45, 5-bromo-N^4-[(thiazol-5-yl)methyl]-2-(1H-1,2,4-triazol-1-yl)pyrimidine-4,6-diamine] | 1.3
3 | CCNc1nc(-n2cc(-c3ccncn3)cn2)nc(N)c1Br [Example 61, 5-bromo-N^4-ethyl-2-[4-(pyrimidin-4-yl)-1H-pyrazol-1-yl]pyrimidine-4,6-diamine] | 37
4 | C#CCNc1nc(-n2cc(-c3cnccn3)cn2)nc(N)c1Br [Example 30, 5-bromo-N^4-(prop-2-ynyl)-2-[4-(pyrazin-2-yl)-1H-pyrazol-1-yl]pyrimidine-4,6-diamine] | 4.5
5 | Nc1nc(-n2ncc3ccccc32)nc(NCC2CC2)c1Br [Example 1, 5-bromo-N^4-(cyclopropylmethyl)-2-(1H-indazol-1-yl)pyrimidine-4,6-diamine] | 52.5
6 | Cc1ncsc1CNc1nc(-n2ncc3ccccc32)nc(N)c1Br [Example 10, 5-bromo-2-(1H-indazol-1-yl)-N^4-[(4-methylthiazol-5-yl)methyl]pyrimidine-4,6-diamine] | 2.9
7 | C#CCNc1nc(-n2cc(-c3ccccn3)cn2)nc(N)c1Br [Example 17, 5-bromo-N^4-(prop-2-ynyl)-2-[4-(pyridin-2-yl)-1H-pyrazol-1-yl]pyrimidine-4,6-diamine] | 18
8 | Nc1nc(-n2ncc3ccncc32)nc(NCC2CC2)c1Br [Example 35, 5-bromo-N^4-(cyclopropylmethyl)-2-(1H-pyrazolo[3,4-c]pyridin-1-yl)pyrimidine-4,6-diamine] | 1.8
9 | Nc1nc(-n2cc(-c3ccc4ccccc4n3)cn2)nc(NC2CCOCC2)c1Br [Example 23, 5-bromo-N^4-(tetrahydro-2H-pyran-4-yl)-2-[4-(quinolin-2-yl)-1H-pyrazol-1-yl]pyrimidine-4,6-diamine] | 9.6
10 | Nc1nc(-n2cc(C(=O)O)cn2)nc(NCC2CC2)c1Br [Example 51, 1-[4-amino-5-bromo-6-(cyclopropylmethylamino)pyrimidin-2-yl]-1H-pyrazole-4-carboxylic acid] | 29.9
11 | Cc1ncsc1CNc1nc(-n2cc(-c3cnccn3)cn2)nc(N)c1Br [Example 29, 5-bromo-N^4-[(4-methylthiazol-5-yl)methyl]-2-[4-(pyrazin-2-yl)-1H-pyrazol-1-yl]pyrimidine-4,6-diamine] | 16.5
12 | Nc1nc(-n2cncn2)nc(NCC2CC2)c1Br [Example 46, 5-bromo-N^4-(cyclopropylmethyl)-2-(1H-1,2,4-triazol-1-yl)pyrimidine-4,6-diamine] | 3.4
13 | Nc1nc(-n2ncc3ccccc32)nc(NCc2cncs2)c1Br [Example 9, 5-bromo-2-(1H-indazol-1-yl)-N^4-[(thiazol-5-yl)methyl]pyrimidine-4,6-diamine] | 1.6
14 | C#CCNc1nc(-n2cncn2)nc(N)c1Br [Example 42, 5-bromo-N^4-(prop-2-ynyl)-2-(1H-1,2,4-triazol-1-yl)pyrimidine-4,6-diamine] | 5.8
15 | CCNc1nc(-n2ncc3ccccc32)nc(N)c1Br [Example 2, 5-bromo-N^4-ethyl-2-(1H-indazol-1-yl)pyrimidine-4,6-diamine] | 21.9
16 | Nc1nc(-n2ncc3ccncc32)nc(NCc2cncs2)c1Br [Example 36, 5-bromo-2-(1H-pyrazolo[3,4-c]pyridin-1-yl)-N^4-[(thiazol-5-yl)methyl]pyrimidine-4,6-diamine] | 0.06
17 | Cc1ncsc1CNc1nc(-n2ncc3ccncc32)nc(N)c1Br [Example 34, 5-bromo-N^4-[(4-methylthiazol-5-yl)methyl]-2-(1H-pyrazolo[3,4-c]pyridin-1-yl)pyrimidine-4,6-diamine] | 0.4
18 | Cn1cc(CNc2nc(-n3ncc4ccccc43)nc(N)c2Br)cn1 [Example 8, 5-bromo-2-(1H-indazol-1-yl)-N^4-[(1-methyl-1H-pyrazol-4-yl)methyl]pyrimidine-4,6-diamine] | 74.1
19 | Cc1nc(CNc2nc(-n3ncc4ccccc43)nc(N)c2Br)cs1 [Example 6, 5-bromo-2-(1H-indazol-1-yl)-N^4-[(2-methylthiazol-4-yl)methyl]pyrimidine-4,6-diamine] | 18.8
20 | CCNc1nc(-n2cc(-c3ccncn3)cn2)nc(NCc2nc3ccccc3[nH]2)c1Br [Example 77, N^4-[(1H-benzo[d]imidazol-2-yl)methyl]-5-bromo-N^6-ethyl-2-[4-(pyrimidin-4-yl)-1H-pyrazol-1-yl]pyrimidine-4,6-diamine] | 29.3
21 | Nc1nc(-n2cc(-c3ccccn3)cn2)nc(NCc2cncs2)c1Br [Example 20, 5-bromo-2-[4-(pyridin-2-yl)-1H-pyrazol-1-yl]-N^4-[(thiazol-5-yl)methyl]pyrimidine-4,6-diamine] | 7
22 | CCNc1nc(-n2ncc3ccccc32)nc(N)c1Cl [Example 64, 5-chloro-N^4-ethyl-2-(1H-indazol-1-yl)pyrimidine-4,6-diamine] | 12.4
23 | C#CCNc1nc(-n2ncc3ccccc32)nc(NCC)c1Br [Example 66, 5-bromo-N^4-ethyl-2-(1H-indazol-1-yl)-N^6-(prop-2-ynyl)pyrimidine-4,6-diamine] | 120
24 | Nc1nc(-n2ncc3ccccc32)nc(NC2CCOCC2)c1Br [Example 7, 5-bromo-N^4-(tetrahydro-2H-pyran-4-yl)-2-(1H-indazol-1-yl)pyrimidine-4,6-diamine] | 21.9
25 | C#CCNc1nc(-n2ncc3ccncc32)nc(N)c1Br [Example 33, 5-bromo-N^4-(prop-2-ynyl)-2-(1H-pyrazolo[3,4-c]pyridin-1-yl)pyrimidine-4,6-diamine] | 3.2
26 | Cc1ncsc1CNc1nc(-n2ncc3ncccc32)nc(N)c1Br [Example 41, 5-bromo-N^4-[(4-methylthiazol-5-yl)methyl]-2-(1H-pyrazolo[4,3-b]pyridin-1-yl)pyrimidine-4,6-diamine] | 0.6
27 | COCCNc1nc(-n2ncc3ccccc32)nc(N)c1Br [Example 11, 5-bromo-2-(1H-indazol-1-yl)-N^4-(2-methoxyethyl)pyrimidine-4,6-diamine] | 25.9
28 | C#CCNc1nc(-n2ncc3ccccc32)nc(N)c1Br [Example 3, 5-bromo-2-(1H-indazol-1-yl)-N^4-(prop-2-ynyl)pyrimidine-4,6-diamine] | 40.9
29 | CCNc1nc(-n2cc(C(=O)N3CCOCC3)cn2)nc(N)c1Br [Example 53, {1-[4-amino-5-bromo-6-(ethylamino)pyrimidin-2-yl]-1H-pyrazole-4-yl}(morpholino)methanone] | 8.2
30 | Nc1nc(-n2cc(-c3ccccn3)cn2)nc(-n2cccn2)c1Br [Example 55, 5-bromo-6-(1H-pyrazol-1-yl)-2-[4-(pyridin-2-yl)-1H-pyrazol-1-yl]pyrimidin-4-amine] | 90.7
